In one assay the target is human Nav1.7 (Homo sapiens (Human), UniProt Q15858). Kind of assay: FLIPR or FLIPR TETRA sodium dye assay with KCl and test article pre-incubation. Format: cell-based. The following applies: read-out: Nav1.7 IC50 (μM) ± SEM.
human Nav1.7, sequence (Q15858 other isoform, or with tags, fused parts or gaps): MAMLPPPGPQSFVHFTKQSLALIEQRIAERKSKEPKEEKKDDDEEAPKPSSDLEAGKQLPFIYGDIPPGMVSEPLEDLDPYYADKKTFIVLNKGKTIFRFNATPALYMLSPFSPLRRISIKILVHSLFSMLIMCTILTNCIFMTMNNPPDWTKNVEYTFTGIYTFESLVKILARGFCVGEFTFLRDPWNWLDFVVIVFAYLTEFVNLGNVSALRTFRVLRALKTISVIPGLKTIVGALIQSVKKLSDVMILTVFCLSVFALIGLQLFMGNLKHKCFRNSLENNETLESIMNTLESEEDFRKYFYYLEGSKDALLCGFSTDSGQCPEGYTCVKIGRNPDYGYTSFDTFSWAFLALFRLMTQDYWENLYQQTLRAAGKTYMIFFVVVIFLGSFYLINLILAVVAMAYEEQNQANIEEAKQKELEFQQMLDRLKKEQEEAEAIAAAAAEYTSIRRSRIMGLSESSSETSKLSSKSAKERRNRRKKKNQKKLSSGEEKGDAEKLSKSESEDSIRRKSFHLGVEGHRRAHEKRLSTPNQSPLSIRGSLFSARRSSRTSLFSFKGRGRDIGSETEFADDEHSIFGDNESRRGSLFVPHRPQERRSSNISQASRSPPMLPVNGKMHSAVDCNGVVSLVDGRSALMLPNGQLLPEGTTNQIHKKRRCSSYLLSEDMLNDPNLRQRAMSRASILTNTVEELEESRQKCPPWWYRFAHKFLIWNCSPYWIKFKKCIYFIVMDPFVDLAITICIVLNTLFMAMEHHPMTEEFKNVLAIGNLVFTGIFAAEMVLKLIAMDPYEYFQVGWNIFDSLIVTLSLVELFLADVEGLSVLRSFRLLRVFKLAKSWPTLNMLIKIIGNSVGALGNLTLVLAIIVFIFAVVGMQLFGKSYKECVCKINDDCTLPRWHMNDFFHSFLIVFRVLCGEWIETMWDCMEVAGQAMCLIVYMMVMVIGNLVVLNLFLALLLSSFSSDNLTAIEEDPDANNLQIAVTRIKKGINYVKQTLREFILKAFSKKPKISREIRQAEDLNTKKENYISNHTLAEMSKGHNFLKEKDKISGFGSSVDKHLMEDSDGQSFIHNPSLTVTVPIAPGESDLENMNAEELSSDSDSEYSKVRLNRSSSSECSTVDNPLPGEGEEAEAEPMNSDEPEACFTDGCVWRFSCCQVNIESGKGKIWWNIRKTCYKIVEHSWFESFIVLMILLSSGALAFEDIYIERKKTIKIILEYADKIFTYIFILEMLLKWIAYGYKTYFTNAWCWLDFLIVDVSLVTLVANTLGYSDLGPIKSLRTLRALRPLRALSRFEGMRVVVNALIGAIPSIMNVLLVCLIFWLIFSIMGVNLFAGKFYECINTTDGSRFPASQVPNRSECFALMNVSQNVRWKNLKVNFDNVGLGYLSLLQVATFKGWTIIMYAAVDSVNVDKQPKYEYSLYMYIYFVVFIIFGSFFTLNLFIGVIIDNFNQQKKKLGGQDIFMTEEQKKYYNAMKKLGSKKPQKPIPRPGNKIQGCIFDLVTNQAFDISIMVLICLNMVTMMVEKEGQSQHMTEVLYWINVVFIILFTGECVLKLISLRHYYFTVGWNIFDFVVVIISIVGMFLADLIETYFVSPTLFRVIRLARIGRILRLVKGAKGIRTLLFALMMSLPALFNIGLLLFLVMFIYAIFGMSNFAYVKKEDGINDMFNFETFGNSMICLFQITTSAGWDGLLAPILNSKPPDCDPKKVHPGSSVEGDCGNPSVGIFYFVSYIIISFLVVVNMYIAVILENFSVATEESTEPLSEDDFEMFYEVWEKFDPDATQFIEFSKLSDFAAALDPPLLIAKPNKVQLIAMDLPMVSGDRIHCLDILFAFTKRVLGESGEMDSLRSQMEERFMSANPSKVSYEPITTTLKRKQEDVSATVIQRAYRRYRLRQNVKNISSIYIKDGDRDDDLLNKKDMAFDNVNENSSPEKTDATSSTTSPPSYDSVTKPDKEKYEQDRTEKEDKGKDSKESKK
On to `N#CCCN(c1ccccc1)c1cc(C(N)=O)nc(-c2ccc(Oc3ccc(F)cc3)cc2)c1` [compound 44, 4-((2-cyanoethyl)(phenyl)amino)-6-(4-(4-fluorophenoxy)phenyl) picolinamide], for which the concentration for half-maximal inhibition (IC50) was 3.29 ± 1.17 µM.

For `NC(=O)c1cc(NCc2ccncc2)cc(-c2ccc(Oc3ccc(F)cc3)cc2)n1` [compound 46, 6-(4-(4-fluorophenoxy)phenyl)-4-((pyridin-4-ylmethyl)amino) picolinamide], the IC50 was 0.48 ± 0.07 µM.

`NC(=O)c1cc(NCC2CCNCC2)cc(-c2ccc(Oc3ccc(F)cc3)cc2)n1` [compound 57, 6-(4-(4-fluorophenoxy)phenyl)-4-((piperidin-4-ylmethyl)amino) picolinamide]: the IC50 stood at 0.83 ± 0.02 µM.

As for `NC(=O)c1cc(NCCN2CCNC2=O)cc(-c2ccc(Oc3ccc(F)cc3)cc2)n1` [compound 58, 6-(4-(4-fluorophenoxy)phenyl)-4-((2-(2-oxoimidazolidin-1-yl)ethyl)amino) picolinamide], the IC50 was 1.57 ± 0.33 µM.

In the case of `NC(=O)c1cc(N2CCC(C(=O)O)CC2)cc(-c2ccc(Oc3ccc(F)cc3)cc2)n1` [compound 59, 1-(2-carbamoyl-6-(4-(4-fluorophenoxy)phenyl)pyridin-4-yl) piperidine-4-carboxylic acid], the 50% inhibitory concentration (IC50) is 2.28 ± 0.2 µM.

Turning to `O=C1NCCN1CCNCCc1cccc(-c2ccc(Oc3ccc(F)cc3)cc2)n1` [compound 64, 1-(2-((2-(6-(4-(4-fluorophenoxy)phenyl)pyridin-2-yl)ethyl)amino)ethyl) imidazolidin-2-one], the half-maximal inhibitory concentration (IC50) was determined as 0.1 ± 0.3 µM.

For `O=C1NCCN1CCNCc1cccc(-c2ccc(Oc3ncc(C(F)(F)F)cc3Cl)cc2)n1` [compound 66, 1-(2-(((6-(4-((3-chloro-5-(trifluoromethyl)pyridin-2-yl)oxy)phenyl)pyridin-2-yl)methyl)amino)ethyl) imidazolidin-2-one], the 50% inhibitory concentration (IC50) is 0.13 ± 0.03 µM.

On to `N#Cc1cc(Oc2ccc(-c3cccc(CNCCN4CCNC4=O)n3)cc2)ccc1C(F)(F)F` [compound 70, 5-(4-(6-(((2-(2-oxoimidazolidin-1-yl)ethyl)amino)methyl)pyridin-2-yl)phenoxy)-2-(trifluoromethyl) benzonitrile], for which the IC50 was determined as 0.23 ± 0.08 µM.

The assay is the same for the next values; noted with them: recombinant human Nav1.7 in HEK293 cells; CoroNa Green sodium dye; veratridine + scorpion venom; read-out: Nav1.7 IC50 (μM) ± SEM.
Consider `O=C(NCCN1CCCCC1)c1cc([C@H](O)CO)cc(-c2ccc(Oc3ccc(F)cc3)cc2)n1` [compound 42, (S)-4-(1,2-dihydroxyethyl)-6-(4-(4-fluorophenoxy)phenyl)-N-(2-(piperidin-1-yl)ethyl) picolinamide], for which the IC50 was determined as 1.25 ± 0.15 µM.

As for `CN(c1ccccc1)c1cc(C(N)=O)nc(-c2ccc(Oc3ccc(F)cc3)cc2)c1` [compound 43, 6-(4-(4-fluorophenoxy)phenyl)-4-(methyl (phenyl)amino) picolinamide], the IC50 came to 0.93 ± 0.17 µM.

For `NC(=O)c1cc(NCc2cccnc2)cc(-c2ccc(Oc3ccc(F)cc3)cc2)n1` [compound 45, 6-(4-(4-fluorophenoxy)phenyl)-4-((pyridin-3-ylmethyl)amino) picolinamide], the half-inhibitory concentration (IC50) came out at 0.15 ± 0.01 µM.

`NC(=O)c1cc(NCc2ccccn2)cc(-c2ccc(Oc3ccc(F)cc3)cc2)n1` [compound 47, 6-(4-(4-fluorophenoxy)phenyl)-4-((pyridin-2-ylmethyl)amino) picolinamide]: the 50% inhibitory concentration (IC50) was 0.22 ± 0.06 µM.

For `NC(=O)c1cc(NCCN2CCS(=O)(=O)CC2)cc(-c2ccc(Oc3ccc(F)cc3)cc2)n1` [compound 48, 4-((2-(1,1-dioxidothiomorpholino)ethyl)amino)-6-(4-(4-fluorophenoxy)phenyl) picolinamide], the half-inhibitory concentration (IC50) was 0.09 ± 0.06 µM.

Regarding `NC(=O)c1cc(NCc2ncccn2)cc(-c2ccc(Oc3ccc(F)cc3)cc2)n1` [compound 49, 6-(4-(4-fluorophenoxy)phenyl)-4-((pyrimidin-2-ylmethyl)amino) picolinamide], the IC50 came out at 0.1 ± 0.03 µM.

Turning to `CS(=O)(=O)NCc1cc(C(N)=O)nc(-c2ccc(Oc3ccc(F)cc3)cc2)c1` [compound 50, 6-(4-(4-fluorophenoxy)phenyl)-4-(methylsulfonamido-methyl)picolinamide], the half-inhibitory concentration (IC50) worked out at 0.14 ± 0.03 µM.

Turning to `NC(=O)c1cc(CN2CCNCC2)cc(-c2ccc(Oc3ccc(F)cc3)cc2)n1` [compound 51, 6-(4-(4-fluorophenoxy)phenyl)-4-(piperazin-1-ylmethyl)picolinamide], the 50% inhibitory concentration (IC50) turned out to be 0.18 ± 0.3 µM.

As for `NC(=O)CN1CCC(CNc2cc(C(N)=O)nc(-c3ccc(Oc4ccc(F)cc4)cc3)c2)CC1` [compound 52, 4-(((1-(2-amino-2-oxoethyl)piperidin-4-yl)methyl)amino)-6-(4-(4-fluorophenoxy)phenyl) picolinamide], the IC50 was 0.2 ± 0.08 µM.

`NC(=O)c1cc(NCCN2CCOCC2)cc(-c2ccc(Oc3ccc(F)cc3)cc2)n1` [compound 53, 6-(4-(4-fluorophenoxy)phenyl)-4-((2-morpholinoethyl)amino) picolinamide]: the half-maximal inhibitory concentration (IC50) came out at 0.22 ± 0.06 µM.

Regarding `NC(=O)c1cc(NCCCn2ccnc2)cc(-c2ccc(Oc3ccc(F)cc3)cc2)n1` [compound 54, 4-((3-(1H-imidazol-1-yl)propyl)amino)-6-(4-(4-fluorophenoxy)phenyl) picolinamide], the IC50 was 0.22 ± 0.06 µM.

With `NC(=O)c1cc(N2CCNCC2)cc(-c2ccc(Oc3ccc(F)cc3)cc2)n1` [compound 55, 6-(4-(4-fluorophenoxy)phenyl)-4-(piperazin-1-yl) picolinamide], the half-inhibitory concentration (IC50) amounted to 0.23 ± 0.06 µM.

In the case of `NC(=O)c1cc(N2CCC(C(N)=O)CC2)cc(-c2ccc(Oc3ccc(F)cc3)cc2)n1` [compound 56, 4-(4-carbamoylpiperidin-1-yl)-6-(4-(4-fluorophenoxy)phenyl) picolinamide], the IC50 was 0.31 ± 0.05 µM.

On to `NC(=O)c1cc(CNCCN2CCNC2=O)cc(-c2ccc(Oc3ccc(F)cc3)cc2)n1` [compound 60, 6-(4-(4-fluorophenoxy)phenyl)-4-(((2-(2-oxoimidazolidin-1-yl)ethyl)amino)methyl)picolinamide], for which the IC50 amounted to 0.16 ± 0.03 µM.

Regarding `O=C1NCCN1CCNCc1cccc(-c2ccc(Oc3ccc(C(F)(F)F)cc3)cc2)n1` [compound 61, 1-(2-(((6-(4-(4-(trifluoromethyl)phenoxy)phenyl)pyridin-2-yl)methyl)amino)ethyl)imidazolidin-2-one], the IC50 amounted to 0.03 ± 0.01 µM.

On to `O=C1NCCN1CCNCc1cccc(-c2ccc(Oc3ccc(F)cc3)cc2)n1` [compound 62, 1-(2-(((6-(4-(4-fluorophenoxy)phenyl)pyridin-2-yl)methyl)amino)ethyl)imidazolidin-2-one], for which the IC50 came to 0.07 ± 0.02 µM.

`N#Cc1ccc(Oc2ccc(-c3cccc(CNCCN4CCNC4=O)n3)cc2)c(C(F)(F)F)c1` [compound 65, 4-(4-(6-(((2-(2-oxoimidazolidin-1-yl)ethyl)amino)methyl)pyridin-2-yl)phenoxy)-3-(trifluoromethyl) benzonitrile]: the 50% inhibitory concentration (IC50) came out at 0.12 ± 0.02 µM.

Take `N#Cc1ccc(Oc2ccc(-c3cccc(CNCCN4CCNC4=O)n3)cc2)cc1` [compound 67, 4-(4-(6-(((2-(2-oxoimidazolidin-1-yl)ethyl)amino)methyl)pyridin-2-yl)phenoxy)benzonitrile]: the IC50 stood at 0.17 ± 0.01 µM.

As to `N#CCN(CCN1CCNC1=O)Cc1cccc(-c2ccc(Oc3ccc(F)cc3)cc2)n1` [compound 69, 2-(((6-(4-(4-fluorophenoxy)phenyl)pyridin-2-yl)methyl) (2-(2-oxoimidazolidin-1-yl)ethyl)amino) acetonitrile], the IC50 worked out at 0.19 ± 0.05 µM.
